According to ChEMBL document CHEMBL3351786, “Drug discovery targeting cell division proteins, microtubules and FtsZ” (Bioorg Med Chem, 2014):

Tests used:
Type in all cases: functional
HeLa = assay: Mitotic arrest in human HeLa cells assessed as apoptosis at 5 nM after 24 hrs by TUNEL assay
A2780 [1] = assay: Resistance factor, ratio of IC50 for paclitaxel-resistant human 1A9PTX10 cells to ratio of IC50 for human A2780 cells
A2780 [2] = assay: Resistance factor, ratio of IC50 for paclitaxel-resistant human 1A9PTX22 cells to ratio of IC50 for human A2780 cells

| Structure (SMILES) | Activity (HeLa) | Ratio IC50 (A2780 [1]) | Ratio IC50 (A2780 [2]) |
| --- | --- | --- | --- |
| CCC(=O)O[C@H]1C(=O)[C@@]2(C)[C@H]([C@H](OC(=O)c3ccccc3)[C@]3(O)C[C@H](OC(=O)[C@H](O)[C@H](C=C(C)C)NC(=O)OC(C)(C)C)C(C)=C1C3(C)C)[C@]1(OC(C)=O)CO[C@@H]1C[C@@H]2O | 70% |  |  |
| CCC(=O)O[C@H]1C(=O)[C@@]2(C)[C@H]([C@H](OC(=O)c3cccc(OC)c3)[C@]3(O)C[C@H](OC(=O)[C@H](O)[C@H](C=C(C)C)NC(=O)OC(C)(C)C)C(C)=C1C3(C)C)[C@]1(OC(C)=O)CO[C@@H]1C[C@@H]2O |  | 4.8 | 5.1 |
